In brackets after ≈: the same amount, converted by molar mass.
What was measured:
Assay type in all cases: functional, organism-based; call rule not given here
Plasmodium falciparum [1] = assay: In vitro antimalarial activity against Plasmodium falciparum D6
Plasmodium falciparum [2] = assay: In vitro antimalarial activity against Plasmodium falciparum W2
Plasmodium falciparum [3] = assay: In vitro antimalarial activity against Plasmodium falciparum W2; Not significant
Plasmodium falciparum [4] = assay: In vitro antimalarial activity against Plasmodium falciparum D6; Not significant

Row | IC50 (Plasmodium falciparum [1]) [µg/mL] | IC50 (Plasmodium falciparum [2]) [µg/mL] | IC50 (Plasmodium falciparum [3]) | IC50 (Plasmodium falciparum [4]) | Structure (SMILES)
1 | ~0.6 (≈ 0.774 µM) | ~0.6 (≈ 0.774 µM) | – | – | CCn1cc(C(=O)NCCCCCN(O)C(=O)CCC(=O)NCCCCCN(O)C(=O)CCC(=O)NCCCCCN(O)C(C)=O)c(=O)c2ccc(C)nc21
2 | – | – | Not Active | Not Active | CC(=O)N(O)CCCCCNC(=O)CCC(=O)N(O)CCCCCNC(=O)CCC(=O)N(O)CCCCCNC(=O)c1ccc2c(c1)C(=O)c1ccccc1C2=O
